Assay results from PMC11764150 (2025).
Read-outs that look alike come from different tables or passages of the source.

Tests used:
[1] = test system: COC Apt-AuNP (biotin-ended COC aptamer) (DNA, aptamer) AGGAATTCAGATCTCCCTGCAGTTCGAGGAAGAATAGACCTGCCTTCTAATAGCTCGAGGAGCTCAGGATCCCG; experiment: competitive lateral flow assay
[2] = test system: MET Apt-AuNP (biotin-ended MET aptamer) (DNA, aptamer) AGGAATTCAGATCTCCCTGCAGAAAACAGACCACCCACTTTGAATCCACTTGACTCGAGGAGCTCAGGATCCCG; experiment: competitive lateral flow assay
[3] = test system: MET aptamer (DNA, aptamer) AGGAATTCAGATCTCCCTGCAGAAAACAGACCACCCACTTTGAATCCACTTGACTCGAGGAGCTCAGGATCCCG; experiment: isothermal titration calorimetry; conditions: 100 mM NaCl, 2.7 mM KCl, 2 mM MgCl2
[4] = test system: COC aptamer (DNA, aptamer) AGGAATTCAGATCTCCCTGCAGTTCGAGGAAGAATAGACCTGCCTTCTAATAGCTCGAGGAGCTCAGGATCCCG; experiment: isothermal titration calorimetry; conditions: 100 mM NaCl, 2.7 mM KCl, 2 mM MgCl2

## COc1ccc2c3c1O[C@H]1[C@@H](O)C=C[C@H]4[C@@H](C2)N(C)CC[C@@]341
[1]
  binding: no
[2]
  binding: no

## CN[C@@H](C)Cc1ccccc1
[1]; synthetic saliva, gold nanoparticle conjugate, COC-BSA test line
  binding: no
[2]
  binding: yes
[3]
  Kd: 0.57 µM

## COC(=O)[C@H]1[C@@H](OC(=O)c2ccccc2)C[C@@H]2CC[C@H]1N2C
[1]; synthetic saliva, gold nanoparticle conjugate, COC-BSA test line, positive at 5.0 ng/mL to 1.0 µg/mL
  binding: yes
[2]
  binding: no
[4]
  Kd: 0.306 µM

## CCCCCc1cc(O)c2c(c1)OC(C)(C)[C@@H]1CCC(C)=C[C@@H]21
[1]
  binding: no
[2]
  binding: no
